Experimental findings from paper PMC9034499, “RORγt agonist enhances anti-PD-1 therapy by promoting monocyte-derived dendritic cells through CXCL10 in cancers” (Journal of Experimental & Clinical Cancer Research : CR, 2022) are described below.

Where only a bound is given, the exact number is not on record here.

The test system of one data set is B cells. The data set is described as follows: B cell activation markers by qPCR. The format is cell-based. Particulars: compared with the vehicle. The procedure:
(§1) The intracellular cytokines by TILs or in vitro differentiated T helper cells were quantified after restimulation with PMA plus ionomycin in the presence of GolgiStop for 6 h. The total RNA was isolated using the improved TRizol-based (Sigma, Darmstadt, Germany) method for qPCR analysis, and the mRNA expression was analyzed using a StepOnePlus (Life Technologies, Carlsbad, USA) real-time PCR instrument using housekeeping gene β-actin and Gapdh internal standards. qPCR was performed using A Power SYBR Green PCR Master Mix (Accurate Biology, Hunan, China) and two-cycle amplification for 40 cycles followed by the melting curve. The sequence of primers is listed in the Additional file 6: Table S1. In addition, the cytokines were quantified in cell-free culture supernatants using enzymelinked immunosorbent assay (ELISA) kit (the optical density (OD) value was measured at 450 nm, using 570 nm or 630 nm as the reference wavelengths, Multisciences, Hangzhou, China). The kit was used according to the manufacturer’s instructions.
(§2) To confirm the in vitro specificity of 8-074, splenocytes from C57BL/6 wild-type mice were activated by plate-bound anti-CD3 and anti-CD28 antibodies and polarized with anti-IL-4 and IL-12 to obtain Th1 cells. IFN-γ, a signature cytokine of Th1 cells, was not affected by LYC-55716 or 8-074 compared with vehicle alone (Fig. 2j, Fig. S2g).

The next data set has as its system macrophages. The data set is described as follows: Macrophage markers by qPCR. The format is cell-based. The note with it: compared with vehicle. The procedure: as §1, §2
For data set [1], the system named is OVA-pulsed EL-4 lymphoma cells. The data set is described as follows: Ex vivo cytotoxicity assay of Tc17 cells. The data set is classed as cell-based, mouse. The note with it: Tc17 cells differentiated from OT-I T cells with 8-074. On the procedure: The EL4 cells were pulsed using 50 ng/ml OVA257-264 peptide (SIINFEKL) (Sangon Biotech, Shanghai, China) for 2 h at 37 °C and then labeled with 0.25 μM or 2.5 μM of CFSE (carboxyfluorescein succinimidyl ester; Thermo Fisher Scientific, Massachusetts, America) for 10 min at 37 °C. CFSE^l°^w (SIINFEKL loaded target) and CFSE^high (irrelevant peptide control) EL4 cells were mixed at a 1:1 ratio and then co-cultured with Tc17 cells differentiated from OT-I T cells challenged (or not) with 8-074 at 30:1, 10:1, 3:1, and 1:1 effector to target cell ratios (E: T). The frequencies of the CFSE^l°^w and CFSE^high EL4 cells in the CFSE positive fraction were determined using flow cytometric analysis 18 h after incubation, and the percent of the specific killing was calculated. Specific killing (%) = [1 − (Sample ratio) / (Negative control ratio)] × 100; Sample ratio = [CFSE^l°^w(target)/CFSE^high(irrelevant)] value of each sample co-cultured with Tc17 cells; Negative control ratio = [CFSE^l°^w(target) / CFSE^high (irrelevant)] value of EL4 cells not cultured with Tc17 cells.

Another data set relates to EL4 cells. In words: Direct toxicity on tumor cells (apoptosis, CCK-8). The format is cell-based. The note with it: even at higher concentrations of 8-074. On the procedure:
To exclude the direct cytotoxic killing effect of 8-074 on tumor cells, we conducted an apoptosis assay, a cell proliferation assay, and a cytotoxic toxicity assay on tumor cells upon 8-074 treatment.
Supplementary file 13046_2022_2289_MOESM2_ESM.pdf: Additional file 2: Fig. S2. Selectivity of RORγt agonists in vitro. (a) The activity of 8-074 in Gal4 reporter gene assays with RORα and RORβ. (RORα EC50 > 10 μM, RORβ EC50 > 10 μM). (b) Summary of bioactivity and selectivity profiles for 8-074 using multiple assays. (c) 8-074 treated Type 17 T cells secreted more Th17 signature cytokines. IL-17F and IL-22 levels secreted by Type 17 T cells during differentiation were assayed by ELISA (*P < 0.05, **P < 0.01). (d) CCK-8 assay was used to determine the cell viability of EL4 cells after treating them with different 8-074 concentrations. Representative data are shown from three independent experiments. […] Lymphoma EL4 cells were treated with various concentrations of 8-074 for 48 hours and analyzed by flow cytometry after Annexin V-FITC/PI staining. […] (h) The relative mRNA expression of Cd19 in B cells as determined by qPCR. […] (i) Relative mRNA expression of Il-1β levels in macrophages as determined by qPCR. ***P < 0.001. (j) Relative mRNA expression of Il-6 in macrophages as determined by qPCR. *P < 0.05. (k) Relative mRNA expression of Il-10 in macrophages as determined by qPCR. *P < 0.05. […]

For a further data set, the target named is T1, RORβ (Homo sapiens, UniProt Q92753).
T1 construct: expressed in transfected cells
T1 sequence (Q92753 1-470): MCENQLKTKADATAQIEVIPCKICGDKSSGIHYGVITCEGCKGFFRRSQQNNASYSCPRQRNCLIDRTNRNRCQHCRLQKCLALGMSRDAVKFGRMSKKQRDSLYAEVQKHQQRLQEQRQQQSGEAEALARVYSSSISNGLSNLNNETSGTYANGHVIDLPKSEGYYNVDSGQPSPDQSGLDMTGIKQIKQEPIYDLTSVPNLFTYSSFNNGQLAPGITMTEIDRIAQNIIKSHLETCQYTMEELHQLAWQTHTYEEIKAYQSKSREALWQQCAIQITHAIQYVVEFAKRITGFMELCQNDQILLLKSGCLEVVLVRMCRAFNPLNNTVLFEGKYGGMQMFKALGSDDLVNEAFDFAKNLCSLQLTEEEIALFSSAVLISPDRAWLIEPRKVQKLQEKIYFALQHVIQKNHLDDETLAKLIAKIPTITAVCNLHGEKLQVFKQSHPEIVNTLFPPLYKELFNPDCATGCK
The data set is described as follows: RORβ Gal4 reporter gene assay. The data set is classed as cell-based. The procedure: The hRORγt LBD coding sequence was inserted into a pBIND expression vector (Promega, E1581) to express the ROR-GAL4 binding domain chimeric receptors. This expression vector and a reporter vector (pGL4.35, which carries a stably integrated GAL4 promoter-driven luciferase reporter gene [luc2P/9XGAL4 UAS/Hygro]) were co-transfected into the HEK293T host cells. The assay was performed according to a previous study. EC50 of the sigmoidal fits were analyzed using Prism 5 and a four-parameter logistic fit equation, Y = bottom + (top–bottom) / (1 + 10(logEC50 − X) × hill slope). "X" is the log of compound concentration, and "Y" is the response, which increases as X increases. Y starts at "bottom" and goes to "top" with a sigmoid shape.
Supplementary file 13046_2022_2289_MOESM2_ESM.pdf: Additional file 2: Fig. S2. Selectivity of RORγt agonists in vitro. […] Lymphoma EL4 cells were treated with various concentrations of 8-074 for 48 hours and analyzed by flow cytometry after Annexin V-FITC/PI staining. […] (h) The relative mRNA expression of Cd19 in B cells as determined by qPCR. […] (i) Relative mRNA expression of Il-1β levels in macrophages as determined by qPCR. ***P < 0.001. (j) Relative mRNA expression of Il-6 in macrophages as determined by qPCR. *P < 0.05. (k) Relative mRNA expression of Il-10 in macrophages as determined by qPCR. *P < 0.05. […]

A further data set has as its system Th1 cells. The data set is described as follows: Th1 specificity, IFN-γ by flow cytometry. Particulars: compared with vehicle alone. The format is cell-based, C57BL/6 wild-type mice.
Text: as §2

Consider `CCS(=O)(=O)c1ccc(CC(=O)Nc2ccc(-c3ccc(CC(C)C)c(C#N)c3)c(C(F)(F)F)c2)cc1` [8-074], for which the “gene expression of activated B cell markers Cd19 and Cd86” value with B cells was “no significant change”. Moreover, the “gene expression of macrophage markers Arg1, Il-1β, Il-6, and Il-10” value in the data set on macrophages was “no significant change”. Further, the “cytotoxic killing activity of treated Tc17 cells” value in data set [1] was “significant increase”. For the same compound, in the data set with EL4 cells, the “apoptosis in the tumor EL4 cells” value is given as “not observed” and the “cytotoxicity on tumor cells” value is “not observed”. The compound further came in with a concentration for a half-maximal effect (EC50) at RORβ of over 10 µM. Further, the “IFN-γ, signature cytokine of Th1 cells” value with Th1 cells was “not affected”.
